The values that follow come from ChEMBL document CHEMBL1201862, “PubChem BioAssay data set” (2004).

In assay [1] the target is T1, Zinc finger protein mex-5 (Caenorhabditis elegans, UniProt Q9XUB2).
T1 sequence (Q9XUB2 whole entry): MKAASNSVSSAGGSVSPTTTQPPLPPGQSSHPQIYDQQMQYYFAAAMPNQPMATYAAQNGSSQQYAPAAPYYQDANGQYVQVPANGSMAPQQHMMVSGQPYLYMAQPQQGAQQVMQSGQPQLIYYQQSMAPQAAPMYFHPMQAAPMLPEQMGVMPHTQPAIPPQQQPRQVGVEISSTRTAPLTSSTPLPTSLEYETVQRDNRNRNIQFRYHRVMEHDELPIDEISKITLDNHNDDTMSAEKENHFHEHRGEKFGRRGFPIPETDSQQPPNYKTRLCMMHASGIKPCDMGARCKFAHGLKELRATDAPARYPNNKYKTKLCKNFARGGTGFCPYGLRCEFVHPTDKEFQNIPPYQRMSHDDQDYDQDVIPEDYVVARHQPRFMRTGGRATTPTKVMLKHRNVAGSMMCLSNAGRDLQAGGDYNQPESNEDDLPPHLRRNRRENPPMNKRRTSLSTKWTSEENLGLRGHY
Nature of the assay: MEX-5/TCR-2 RNA interaction inhibitors, dose response, biochemical, C. elegans, fluorescence polarization (AID 1960).

In assay [2] the target is T2, Probable nicotinate-nucleotide adenylyltransferase (Staphylococcus aureus (strain N315), UniProt P65502). It counts as functional, Staphylococcus aureus subsp. aureus N315. The following applies: read-out: IC50_Mean.
Assay [3] concerns the target T2, Probable nicotinate-nucleotide adenylyltransferase. It counts as functional, Staphylococcus aureus subsp. aureus N315.
In assay [4] the target is T3, RNA-binding protein pos-1 (Caenorhabditis elegans, UniProt G5EF15).
T3 sequence (G5EF15 whole entry): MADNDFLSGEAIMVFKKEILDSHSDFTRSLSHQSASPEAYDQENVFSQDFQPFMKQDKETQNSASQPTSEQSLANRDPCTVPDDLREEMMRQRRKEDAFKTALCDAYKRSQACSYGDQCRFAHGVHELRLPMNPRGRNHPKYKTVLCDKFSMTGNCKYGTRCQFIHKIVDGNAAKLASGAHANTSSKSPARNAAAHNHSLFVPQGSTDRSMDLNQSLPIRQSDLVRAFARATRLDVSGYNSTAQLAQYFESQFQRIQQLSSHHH
Nature of the assay: inhibitors of POS-1/mex-3 RNA binding, dose response, biochemical, fluorescence polarization (AID 1964).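 Note: purified POS-1 fused to maltose binding protein made in E. coli; potency of compounds blocking POS-1 binding to fluorescent RNA.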 For orientation: Polarisation of emitted light reports the rotation of a fluorescent probe.

The target in assay [5] is 72 kDa type IV collagenase (Homo sapiens, UniProt P08253). Nature of the assay: Dose Response validation of uHTS RPN11 inhibitor hits using a MMP-2 Fluorescence assay. It counts as functional.
In assay [6] the target is 26S proteasome non-ATPase regulatory subunit 14 (Homo sapiens, UniProt O00487). Nature of the assay: inhibition of proteasome subunit RPN11 – biochemical, fluorescence polarization, uHTS hits, confirmation (AID 602368). It counts as functional.
Another assay concerns the target Prothrombin (Bos taurus, UniProt P00735). Nature of the assay: thrombin inhibition, dose response, biochemical, fluorescence polarization, uHTS hits (AID 602369). It counts as functional.
The next assay has as its target T4, Protein skinhead-1 (Caenorhabditis elegans, UniProt P34707).
T4 sequence (P34707 whole entry): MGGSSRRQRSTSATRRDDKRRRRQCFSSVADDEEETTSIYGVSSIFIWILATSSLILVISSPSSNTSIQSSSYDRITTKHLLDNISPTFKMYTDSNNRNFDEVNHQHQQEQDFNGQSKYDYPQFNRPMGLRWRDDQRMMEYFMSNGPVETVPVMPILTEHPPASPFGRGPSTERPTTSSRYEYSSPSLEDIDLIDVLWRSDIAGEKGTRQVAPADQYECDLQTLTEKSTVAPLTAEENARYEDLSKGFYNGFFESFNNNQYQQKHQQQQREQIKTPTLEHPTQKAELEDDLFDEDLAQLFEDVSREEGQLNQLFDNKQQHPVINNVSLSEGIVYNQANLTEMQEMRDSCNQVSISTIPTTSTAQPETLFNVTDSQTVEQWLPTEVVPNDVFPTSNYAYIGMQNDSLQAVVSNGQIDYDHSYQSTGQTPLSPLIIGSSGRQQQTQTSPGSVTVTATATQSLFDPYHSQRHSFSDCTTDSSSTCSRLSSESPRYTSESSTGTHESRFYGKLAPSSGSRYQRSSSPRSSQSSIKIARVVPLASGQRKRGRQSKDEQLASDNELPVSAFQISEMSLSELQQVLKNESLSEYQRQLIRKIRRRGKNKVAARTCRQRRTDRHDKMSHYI
It counts as functional.

The next assay deals with Kallikrein-7 (Homo sapiens, UniProt P49862). Nature of the assay: Fluorescence Intensity-based biochemical primary high throughput dose response assay to identify activators of kallikrein-7 (K7) zymogen.
Assay [7] in a line: Shn3 3'UTR reporter inhibitors, dose response, cell-based, Clone20 osteoblasts, firefly luciferase, cherry-picked (AID 624132).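 Note: firefly luciferase luminescence from reporter carrying the Shn3 3'UTR in osteoblasts.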 It counts as functional.
A short description of assay [8]: cytotoxicity in HEK-293T cells, dose response, cytotoxicity control for TCR NF-kB inhibitor project, luminescence, T-cell screen hits (AID 489026).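 Note: cells exposed to compound about 14 hours before the viability readout.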 It counts as functional, cell-based.
The nature of assay [9]: control 3'UTR Renilla luciferase suppression, dose response, counter-screen for Shn3 inhibitor project, cell-based, Clone20-Shn3RL, cherry-picked (AID 624133). It counts as functional. For orientation: A counterscreen serves to expose hits that act by an unwanted route or on another target.
Assay [10] in a line: inhibitors of intracellular T. cruzi replication, confirmation, NIH3T3 host cells, beta-gal luminescence (AID 2044).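 Note: intracellular parasites grown in NIH/3T3 mouse fibroblasts as host cells; luminescent beta-galactosidase reporter signal from transgenic T. cruzi replicating inside host cells; inhibitors lower the luminescence signal.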 It counts as functional, cell-based.
The nature of assay [11]: cytotoxicity toward NIH3T3 fibroblasts, dose response, counter-screen, cell-based, ATP luminescence, mouse fibroblasts (AID 2010).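 Note: cells exposed to compound for about 90 hours before reading.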 It counts as functional.
For a further assay, the system named is INS1. Nature of the assay: beta cell apoptosis inhibitors, cytokine rescue, dose response, luminescence, retest (AID 449756).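 Note: cell death triggered by IL-1 beta plus TNF-alpha plus IFN-gamma mixture; protective hits raise ATP signal compared with cytokine alone wells.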 It counts as functional, cell-based. The following applies: Rattus norvegicus.
A short description of assay [12]: HepG2 cell cytotoxicity, dose response, cytotoxicity control for Shn3 inhibitor project, CellTiter-Glo, cherry-picked (AID 624134). It counts as functional, cell-based.
Assay [13] deals with T5, COUP transcription factor 2 (Homo sapiens, UniProt P24468).
T5 sequence (P24468 whole entry): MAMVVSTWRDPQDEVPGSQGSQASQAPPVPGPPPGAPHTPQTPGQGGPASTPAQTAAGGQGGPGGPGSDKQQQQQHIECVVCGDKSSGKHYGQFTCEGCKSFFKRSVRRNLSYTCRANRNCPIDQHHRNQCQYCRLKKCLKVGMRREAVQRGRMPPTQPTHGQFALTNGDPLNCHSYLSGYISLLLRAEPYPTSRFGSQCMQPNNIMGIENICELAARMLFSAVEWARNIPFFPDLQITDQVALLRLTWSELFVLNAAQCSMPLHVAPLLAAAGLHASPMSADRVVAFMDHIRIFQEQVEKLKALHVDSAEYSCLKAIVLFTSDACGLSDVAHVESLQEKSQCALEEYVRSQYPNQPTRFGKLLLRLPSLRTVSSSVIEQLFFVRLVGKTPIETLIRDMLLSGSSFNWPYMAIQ
Nature of the assay: Luminescence-based cell-based high throughput dose response assay to identify inhibitors of COUP-TFII (NR2F2). It counts as functional.

The nature of assay [14]: HEK293T cytotoxicity, dose response, cytotoxicity control for miR-122 modulator project, cell-based, inhibitor set, cherry-pick, set 2 (AID 720697). It counts as functional.
Assay [15] in a line: miR-122 activators in hepatoma reporter cells, dose response, cell-based, Huh7 psiCHECK-miR122, Renilla luciferase, cherry-picked (AID 651956).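 Note: huh7 hepatoma cells stably carrying a psiCHECK-2 miR-122 sensor plasmid; renilla luciferase signal reporting endogenous miR-122 activity after 48 h compound exposure.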 It counts as functional.
Assay [16] can be described thus: cells. It counts as functional, cell-based.
Assay [17] in a line: cells. It counts as functional, cell-based. This is another data set of the same source.
Assay [18] addresses T6, Low molecular weight phosphotyrosine protein phosphatase (Homo sapiens, UniProt P24666).
T6 sequence (P24666 whole entry): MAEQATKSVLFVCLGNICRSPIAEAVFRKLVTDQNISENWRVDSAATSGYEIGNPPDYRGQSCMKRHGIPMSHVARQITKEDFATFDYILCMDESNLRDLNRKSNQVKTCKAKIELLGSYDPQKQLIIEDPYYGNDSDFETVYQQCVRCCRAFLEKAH
It counts as functional. Conditions: read-out: IC50_Mean.

A short description of assay [19]: ZM109 Env clade C HIV-1 fusion inhibitors, dose response, HeLa effector, CEM target cells, luciferase, cherry-pick (AID 652058). It counts as functional, cell-based.
The nature of assay [20]: inhibitors of clade B AD8 Env fusion, dose response, cell-based, cherry-pick (AID 652062).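 Note: luciferase signal from cell-cell fusion driven by HIV-1 clade B AD8 Env; potency is for inhibitors of fusion seen as a drop in luminescence.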 It counts as functional.
A short description of assay [21]: inhibitors of HIV Env-driven cell fusion, dose response, cherry-pick (AID 652057). It counts as functional, cell-based.
Another assay has as its target Paired box protein Pax-8 (Homo sapiens, UniProt Q06710). Nature of the assay: inhibitors of PAX8-driven TPO luciferase reporter, dose response, RMG-I cells, cherry-pick (AID 687027).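 Note: luciferase reporter driven by Pax8 target thyroperoxidase promoter measured by SteadyGlo luminescence.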 It counts as functional, cell-based. For orientation: Reporter assays use an easily measured gene product as a stand-in for the process of interest.
Assay [22] can be described thus: non-specific cell cytotoxicity, dose response, cytotoxicity control for PAX8 inhibitor project, plate reader, dry powder samples (AID 743021). It counts as functional, cell-based.
The nature of assay [23]: off-target signal loss in HeLa-CEM21 co-culture – HeLa F-luc CTL cells, cherry-picked, counter-screen for HIV-1 Env fusion inhibitor project, dose response (AID 652040).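 Note: potency for signal decrease marking cytotoxic or nonspecific inhibition.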 It counts as functional, cell-based.
Assay [24] can be described thus: CEM21 lymphoblast cell cytotoxicity, dose response, cytotoxicity control for viral fusion inhibitor project, CellTiter-Glo luminescence, cherry-picked (AID 652042).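 Note: potency for signal decrease meaning cytotoxicity.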 It counts as functional, cell-based.

Active and inactive are the calls of the source.

T2 sequence (P65502 whole entry): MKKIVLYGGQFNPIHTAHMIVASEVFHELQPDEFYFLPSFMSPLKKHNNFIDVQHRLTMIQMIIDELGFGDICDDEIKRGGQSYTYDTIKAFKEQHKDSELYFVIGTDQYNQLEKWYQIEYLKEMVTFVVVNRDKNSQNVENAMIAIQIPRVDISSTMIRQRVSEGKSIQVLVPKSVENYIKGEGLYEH
Chain of Kallikrein-7 (P49862 whole entry): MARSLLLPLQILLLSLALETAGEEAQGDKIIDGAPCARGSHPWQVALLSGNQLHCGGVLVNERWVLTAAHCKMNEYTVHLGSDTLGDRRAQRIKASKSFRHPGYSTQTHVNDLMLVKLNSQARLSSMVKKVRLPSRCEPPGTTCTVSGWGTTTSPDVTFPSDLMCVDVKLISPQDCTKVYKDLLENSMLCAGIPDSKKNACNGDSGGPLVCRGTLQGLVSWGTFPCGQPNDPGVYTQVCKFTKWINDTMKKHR
Chain of 26S proteasome non-ATPase regulatory subunit 14 (O00487 whole entry): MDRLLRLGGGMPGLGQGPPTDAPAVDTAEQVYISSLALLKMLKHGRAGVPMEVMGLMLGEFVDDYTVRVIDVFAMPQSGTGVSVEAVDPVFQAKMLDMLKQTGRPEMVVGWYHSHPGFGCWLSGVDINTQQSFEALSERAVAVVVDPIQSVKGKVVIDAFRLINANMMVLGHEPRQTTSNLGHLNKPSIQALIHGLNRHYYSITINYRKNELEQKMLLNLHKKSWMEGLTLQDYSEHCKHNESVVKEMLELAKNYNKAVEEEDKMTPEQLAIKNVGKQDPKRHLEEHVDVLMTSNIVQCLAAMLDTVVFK
Chain of Paired box protein Pax-8 (Q06710 whole entry): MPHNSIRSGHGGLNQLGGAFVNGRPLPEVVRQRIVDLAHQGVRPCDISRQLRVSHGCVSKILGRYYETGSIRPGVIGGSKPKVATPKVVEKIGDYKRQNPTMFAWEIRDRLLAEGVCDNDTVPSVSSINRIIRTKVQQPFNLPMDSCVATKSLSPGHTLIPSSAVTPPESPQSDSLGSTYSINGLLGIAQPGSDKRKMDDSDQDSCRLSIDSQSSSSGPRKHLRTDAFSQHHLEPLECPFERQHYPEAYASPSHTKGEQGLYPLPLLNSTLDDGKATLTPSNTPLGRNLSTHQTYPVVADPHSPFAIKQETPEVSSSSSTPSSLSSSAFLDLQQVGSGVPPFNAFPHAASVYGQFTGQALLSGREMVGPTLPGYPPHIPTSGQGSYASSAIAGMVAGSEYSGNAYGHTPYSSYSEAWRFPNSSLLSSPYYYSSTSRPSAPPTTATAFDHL
Chain of 72 kDa type IV collagenase (P08253 whole entry): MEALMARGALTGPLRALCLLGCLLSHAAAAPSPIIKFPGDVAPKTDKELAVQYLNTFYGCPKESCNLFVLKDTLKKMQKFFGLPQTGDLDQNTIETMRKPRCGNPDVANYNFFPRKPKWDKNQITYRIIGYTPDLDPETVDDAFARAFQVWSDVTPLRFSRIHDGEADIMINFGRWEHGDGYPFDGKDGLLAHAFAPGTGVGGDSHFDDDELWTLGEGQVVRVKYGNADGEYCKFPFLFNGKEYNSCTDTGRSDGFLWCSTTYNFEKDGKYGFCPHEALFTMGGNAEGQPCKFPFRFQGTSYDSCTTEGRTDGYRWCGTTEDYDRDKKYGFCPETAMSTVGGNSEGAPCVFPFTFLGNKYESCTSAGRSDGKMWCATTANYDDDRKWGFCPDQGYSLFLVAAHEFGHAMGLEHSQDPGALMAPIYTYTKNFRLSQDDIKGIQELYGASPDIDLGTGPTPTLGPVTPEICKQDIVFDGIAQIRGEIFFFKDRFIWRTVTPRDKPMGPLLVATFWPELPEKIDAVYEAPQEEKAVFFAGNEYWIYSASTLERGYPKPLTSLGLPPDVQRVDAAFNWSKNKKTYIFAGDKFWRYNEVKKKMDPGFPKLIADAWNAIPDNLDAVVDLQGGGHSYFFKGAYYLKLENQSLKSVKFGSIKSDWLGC

In the case of `CCCCC1=CC2=CC(=O)C(C)(OC(=O)CC)C(=O)C2=CO1` (stereo unspecified), the figures for the EC50 in assay [1] and in [4] were 21.6 µM (active) and 27.8 µM (active), respectively. Also, the IC50 in [2] is 24 µM (active); in assay [3] it was 9.32 µM (active).

Take `Cn1c2ccccc2c2cc(C(=O)OCC(=O)N3CC(=O)Nc4ccccc43)sc21`: the IC50 in [5] is > 100 µM (inactive); in [6] it was 13.9 µM (active); on Prothrombin it was 32.4 µM (active); at Protein skinhead-1, > 100 µM (inactive).

On to `N#C/C(=C/c1ccc(-c2ccc(S(N)(=O)=O)cc2)o1)C(=O)Nc1ccccc1`, for which the half-maximal effective concentration (EC50) at Kallikrein-7 is 9.54 µM (active).

Turning to `COc1ccc(-c2csc(NC(=O)C3CCN(c4ncnc5sc(C)c(C)c45)CC3)n2)cc1OC`, the AC50 was 1.42 µM (active) in assay [7], 0.857 µM (active) in assay [9], 3.6 µM (active) in the assay with INS1 and 1.86 µM (active) in assay [12]. The IC50 was > 80 µM (inactive) in assay [8] and 3.82 µM (active) in assay [13]. Also, the EC50 in [10] is 1.37 µM (active); in assay [11] it was > 60 µM (not active).

`CCOc1ccc2nc(NS(=O)(=O)c3cccs3)sc2c1`: the results for the half-maximal activity concentration (AC50) in [14] and in assay [15] were 1.99 µM (active) and 6.98 µM (active), respectively.

As for `COC(=O)CCCC1=CC2=CC(=O)C(C)(OC(=O)CCc3ccccc3)C(=O)C2=CO1` (stereo unspecified), the results for the EC50 in assay [1] and in assay [4] were 26.7 µM (active) and 30.9 µM (active), respectively. Besides, the IC50 in assay [2] was 14.2 µM (active); in assay [3], 5.76 µM (active).

Take `O=C(NCCc1ccccc1)Oc1ccc(Cl)cc1`: in “cells [16]”, the IC50 is > 29.9 µM (inactive). The EC50 in “cells [17]” is > 29.9 µM (inactive).

For `O=C(N/N=C/C=C\c1ccccc1[N+](=O)[O-])c1cc(-c2ccc3ccccc3c2)[nH]n1`, the figures for the IC50 in assay [2] and in assay [3] were 74.3 µM (active) and 22.5 µM (active), respectively.

`Cc1cc(N2CCN(C(C(=O)NC3CCCC3)c3ccco3)CC2)c2ccccc2n1` (stereo unspecified): the IC50 in [18] was 27.3 µM (inactive).

Regarding `CC(=NNc1ccc2ccccc2n1)c1ccccn1`, the AC50 was 10.7 µM (active) in assay [19]; 5 µM (active) in assay [20]; 3.13 µM (active) in assay [21]; 2.27 µM (active) on Paired box protein Pax-8; 59.5 µM (active) in [22]; 8.41 µM (active) in assay [23]. In addition, the AC50 in [24] is 0.399 µM (active).

With `CNC(=O)C[C@H]1CC[C@@H]2[C@H](COc3ccc(NC(=O)C(C)C)cc3C(=O)N2C)O1`, the AC50 in assay [14] is 9.62 µM (active).

Broadly, the EC50 is the concentration at which the effect is half-maximal. The AC50 is the concentration giving half of the maximal activity seen.
